Consider five compounds from ChEMBL document CHEMBL1201862, “PubChem BioAssay data set” (2004).

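Results reflect a 48-hour exposure of cells in 96-well plates to compound at five concentrations. Abbreviation: GI50, concentration required for 50% inhibition of growth.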 Activity calls are given as the source filed them. Cut-off read from the data, not from the text of the source: active = GI50 up to about 1.1 µM and inactive = higher. Bounds are passed on as bounds.

What all share (experiment): NCI anticancer screen, dose series, 48 h
Experiment [1] deals with OVCAR-8.
For experiment [2], the system named is SNB-75.
Experiment [3] has as its system HCT-15.
Experiment [4] has as its system SF-539.
Experiment [5] concerns HL-60.
The test system of experiment [6] is Malme-3M.
For experiment [7], the system named is KM12.
For experiment [8], the system named is A498.
The subject of experiment [9] is OVCAR-4.
The test system of experiment [10] is CCRF-CEM.
Experiment [11] has as its system HCT-116.
The subject of experiment [12] is NCI-H522.
The subject of experiment [13] is UO-31.
The subject of experiment [14] is A549.
Experiment [15] deals with OVCAR-5.
In experiment [16] the test system is SN12C.
In experiment [17] the test system is HOP-92.
Experiment [18] has as its system SW-620.
Experiment [19] deals with UACC-62.
Experiment [20] has as its system SK-MEL-28.

Take `Cc1ccccc1OCC(COC(=O)Nc1ccccc1)OC(=O)Nc1ccccc1` (stereo not given): the GI50 is 26.5 µM (inactive) in [1]; 7.1 µM (inactive) in [2]; above 100 µM in experiment [3]; 4.15 µM (inactive) in experiment [4]; 4.28 µM (inactive) in [5]; 30.9 µM (inactive) in [6]. Also, the GI50 in [7] was 26.3 µM (inactive); in [8], 61.2 µM (inactive); in [9] it was 13.1 µM (inactive); in experiment [10], > 100 µM (inactive); in experiment [11] it was 15.8 µM (inactive); in experiment [12] it was 19.6 µM (inactive). Further, the GI50 was 34.6 µM (inactive) in [13]; 32.7 µM (inactive) in experiment [14]; > 100 µM (inactive) in experiment [15]; 26.8 µM (inactive) in experiment [16]; 10.9 µM (inactive) in experiment [17]; 52.8 µM (inactive) in [18]. Also, the values for the GI50 in [19] and in [20] were 23.3 µM (inactive) and > 100 µM (inactive), respectively.

Consider `Nc1ncc2c(n1)-c1ccccc1OC2`, for which the GI50 in experiment [1] was > 100 µM (inactive); in experiment [2] it was 22.6 µM (inactive); in experiment [3], above 100 µM; in experiment [4], > 100 µM (inactive); in experiment [5] it was > 100 µM (inactive); in experiment [6] it was > 100 µM (inactive). In addition, the GI50 in experiment [7] is > 100 µM (inactive); in experiment [8], 51.2 µM (inactive); in experiment [9] it was > 31.6 µM (inactive); in experiment [10] it was > 100 µM (inactive); in experiment [11] it was > 100 µM (inactive); in experiment [12] it was > 100 µM (inactive). The GI50 in experiment [13] is 45.2 µM (inactive); in [14] it was > 100 µM (inactive); in experiment [15] it was > 100 µM (inactive); in experiment [16], > 100 µM (inactive); in [17], 98.4 µM (inactive); in experiment [18] it was > 100 µM (inactive). Moreover, the GI50 in experiment [19] was 55.7 µM (inactive); in experiment [20] it was > 100 µM (inactive).

As for `CN(C)CCNC(=O)c1cccc2c1C(=O)c1ccccc1C2=O`, the GI50 in [1] is 29.4 µM (inactive); in experiment [2], > 100 µM (inactive); in experiment [3], 30.7 µM; in experiment [4], 40.6 µM (inactive); in experiment [5], 20.6 µM (inactive); in [6], 13.1 µM (inactive). Moreover, the GI50 is > 58.1 µM (inactive) in experiment [7]; > 100 µM (inactive) in experiment [8]; 28.2 µM (inactive) in [9]; 23.8 µM (inactive) in [10]; 25.1 µM (inactive) in experiment [11]; 25.1 µM (inactive) in [12]. For the same compound, the GI50 in experiment [13] was 54 µM (inactive); in experiment [14], 37.2 µM (inactive); in experiment [15] it was 61.5 µM (inactive); in experiment [16] it was 33.7 µM (inactive); in experiment [17], 23.8 µM (inactive); in experiment [18] it was 28.9 µM (inactive). For the same compound, the figures for the GI50 in [19] and in experiment [20] were 21.4 µM (inactive) and 45.3 µM (inactive), respectively.

Consider `Cc1c2c(cc3c1[nH]c1ccccc13)C(c1ccc(F)cc1)=NCC2`, for which the GI50 is 1.81 µM (inactive) in experiment [1]; 1.24 µM (inactive) in experiment [2]; 0.904 µM in experiment [3]; 1.13 µM (inactive) in experiment [4]; 0.358 µM (active) in experiment [5]; 1.68 µM (inactive) in [6]. Moreover, the GI50 in [7] was 0.869 µM (active); in [8], 1.37 µM (inactive); in [9], 0.703 µM (active); in experiment [10], 1.14 µM (inactive); in [11], 0.752 µM (active); in experiment [12], 1.08 µM (active). For the same compound, the GI50 is 1.08 µM (active) in [13]; 1.48 µM (inactive) in [14]; 1.74 µM (inactive) in experiment [15]; 1.63 µM (inactive) in experiment [16]; 1.44 µM (inactive) in experiment [17]; 0.665 µM (active) in [18]. For the same compound, the GI50 in [19] is 0.935 µM (active); in experiment [20], 1.48 µM (inactive).

For `COc1cc([C@@H]2c3cc4c(c(O[C@@H]5O[C@H]6CO[C@@H](C)O[C@H]6[C@H](O)[C@@H]5O)c3C[C@H]3COC(=O)[C@@H]32)OCO4)cc(OC)c1O`, the GI50 was 6.64 µM (inactive) in experiment [1]; 5.32 µM (inactive) in experiment [2]; 14.6 µM in experiment [3]; 2.81 µM (inactive) in experiment [4]; 4.41 µM (inactive) in experiment [5]; > 29.9 µM (inactive) in [6]. Further, the GI50 was 8.75 µM (inactive) in experiment [7]; 4.11 µM (inactive) in experiment [8]; 9.16 µM (inactive) in experiment [9]; 11.9 µM (inactive) in experiment [10]; 6.78 µM (inactive) in [11]; 2.54 µM (inactive) in experiment [12]. Also, the GI50 was 45.6 µM (inactive) in experiment [13]; 10.9 µM (inactive) in experiment [14]; 97.1 µM (inactive) in [15]; 12.6 µM (inactive) in experiment [16]; 25.7 µM (inactive) in [17]; 8.3 µM (inactive) in experiment [18]. Also, the figures for the GI50 in experiment [19] and in experiment [20] were 4.8 µM (inactive) and 5.81 µM (inactive), respectively.
